In the assay the target is T1, DrRecQ helicase catalytic core (Deinococcus radiodurans, UniProt Q9RUU2).
T1 construct: gene DR_1289; residues 5-517 seen in the complex (296-300 not visible); monomer
T1 sequence (Q9RUU2 1-517): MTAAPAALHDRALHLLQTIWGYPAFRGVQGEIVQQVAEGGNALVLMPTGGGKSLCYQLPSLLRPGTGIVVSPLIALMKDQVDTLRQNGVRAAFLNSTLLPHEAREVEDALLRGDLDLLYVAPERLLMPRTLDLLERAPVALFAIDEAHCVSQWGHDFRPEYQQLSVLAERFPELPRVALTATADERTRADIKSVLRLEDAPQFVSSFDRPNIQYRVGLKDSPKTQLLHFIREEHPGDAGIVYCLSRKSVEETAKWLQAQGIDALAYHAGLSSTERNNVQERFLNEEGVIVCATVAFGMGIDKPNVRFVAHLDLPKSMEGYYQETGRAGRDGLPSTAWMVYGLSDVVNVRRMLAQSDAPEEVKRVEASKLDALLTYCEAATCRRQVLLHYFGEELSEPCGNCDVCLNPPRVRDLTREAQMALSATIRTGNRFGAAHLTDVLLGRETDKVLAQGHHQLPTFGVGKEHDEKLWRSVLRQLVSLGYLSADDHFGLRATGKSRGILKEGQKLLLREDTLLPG
Description: X-ray crystallography, […] A. It counts as binding. As to conditions: crystallised in 0.1 M imidazole pH 7.2, 16% PEG 20K; nucleotide pocket of D1 domain (motifs 0 and I); no magnesium added; authors suggest ADP arose from ATP hydrolysed during crystallization.

Turning to `Nc1ncnc2c1ncn2[C@@H]1O[C@H](COP(=O)(O)OP(=O)(O)O)[C@@H](O)[C@H]1O` [ADP], the “X-ray crystallography, 2.9 A” value is “ADP is bound with extensive interactions with the protein”.
